Measurements from ChEMBL document CHEMBL1159138, “Antibacterial evaluation of novel N-Arylimino-1,2,3-dithiazoles and N-arylcyanothioformamides” (1996).
Converted amounts (≈) assume the structure as drawn. The source made the active and inactive calls. No cut-off for these calls is given here.

Tests used:
Enterococcus faecalis [1] = experiment: Antibacterial activity was determined against gram positive bacteria - Enterococcus faecalis (ATCC 29212).; assay type: functional
Enterococcus faecalis [2] = experiment: Minimum inhibitory concentration against Enterococcus faecalis (ATCC 29212) was determined using broth dilution method.; assay type: functional
Listeria monocytogenes [3] = experiment: Antibacterial activity was determined against gram positive bacteria - Listeria monocytogenes (CIP 82110T); assay type: functional
Staphylococcus aureus [4] = experiment: Minimum inhibitory concentration against Staphylococcus aureus(ATCC 9144) was determined using broth dilution method.; assay type: functional
Streptococcus pyogenes [5] = experiment: Minimum inhibitory concentration against Streptococcus pyogenes(ATCC 19165) was determined using broth dilution method.; assay type: functional
Staphylococcus aureus [6] = experiment: Antibacterial activity was determined against gram positive bacteria - Staphylococcus aureus(ATCC 9144); assay type: functional
Streptococcus pyogenes [7] = experiment: Antibacterial activity was determined against gram positive bacteria - Streptococcus pyogenes(ATCC 19165); assay type: functional
Listeria monocytogenes [8] = experiment: Minimum inhibitory concentration against Listeria monocytogenes (CIP 82110T) was determined using broth dilution method.; assay type: functional
Enterococcus faecalis [9] = experiment: Antibacterial activity was determined against gram positive bacteria - Enterococcus faecalis (ATCC 29212); Inactive; assay type: functional, organism-based
Listeria monocytogenes [10] = experiment: Antibacterial activity was determined against gram positive bacteria - Listeria monocytogenes (CIP 82110T); Inactive; assay type: functional, organism-based
Staphylococcus aureus [11] = experiment: Antibacterial activity was determined against gram positive bacteria - Staphylococcus aureus(ATCC 9144); Inactive; assay type: functional, organism-based
Streptococcus pyogenes [12] = experiment: Antibacterial activity was determined against gram positive bacteria - Streptococcus pyogenes(ATCC 19165); Inactive; assay type: functional, organism-based

| MIC (Enterococcus faecalis [2]) | MIC (Staphylococcus aureus [4]) | MIC (Streptococcus pyogenes [5]) | MIC (Listeria monocytogenes [8]) | SMILES | Zone diameter (Enterococcus faecalis [1]) | Zone diameter (Listeria monocytogenes [3]) | Zone diameter (Staphylococcus aureus [6]) | Zone diameter (Streptococcus pyogenes [7]) | Zone diameter (Enterococcus faecalis [9]) | Zone diameter (Listeria monocytogenes [10]) | Zone diameter (Staphylococcus aureus [11]) | Zone diameter (Streptococcus pyogenes [12]) |
| --- | --- | --- | --- | --- | --- | --- | --- | --- | --- | --- | --- | --- |
| 32 µg/mL (≈ 112 µM) | 32 µg/mL (≈ 112 µM) | 32 µg/mL (≈ 112 µM) | 32 µg/mL (≈ 112 µM) | Clc1nss/c1=N\c1ccc2c(c1)OCCO2 | 10 mm | 10 mm | 12 mm | 11 mm |  |  |  |  |
| 32 µg/mL (≈ 102 µM) | 32 µg/mL (≈ 102 µM) | 32 µg/mL (≈ 102 µM) | 32 µg/mL (≈ 102 µM) | COc1cc(C#N)c(/N=c2\ssnc2Cl)cc1OC | 10 mm | 10 mm | 10 mm | 13 mm |  |  |  |  |
|  |  |  |  | N#CC(=S)Nc1ccc2c(c1)OCCO2 |  |  |  |  | inactive | inactive | inactive | inactive |
| 32 µg/mL (≈ 92.3 µM) | 32 µg/mL (≈ 92.3 µM) | 32 µg/mL (≈ 92.3 µM) | 32 µg/mL (≈ 92.3 µM) | COC(=O)c1cc(OC)c(OC)cc1/N=c1\ssnc1Cl | 14 mm | 17 mm | 17 mm | 14 mm |  |  |  |  |
|  |  |  |  | N#CC(=S)Nc1ccccc1 |  |  |  |  | inactive | inactive | inactive | inactive |
|  |  |  |  | COc1cc(NC(=S)C#N)cc(OC)c1OC |  |  |  |  | inactive | inactive | inactive | inactive |
| 32 µg/mL (≈ 100 µM) | 32 µg/mL (≈ 100 µM) | 32 µg/mL (≈ 100 µM) | 32 µg/mL (≈ 100 µM) | COc1cc(/N=c2\ssnc2Cl)cc(OC)c1OC | 10 mm | 17 mm | 13 mm | 16 mm |  |  |  |  |
|  |  |  |  | COc1ccc(NC(=S)C#N)cc1 |  |  |  |  | inactive | inactive | inactive | inactive |
|  |  |  |  | COC(=O)c1ccccc1/N=C(/S)C#N |  |  |  |  | inactive | inactive | inactive | inactive |
|  |  |  |  | COc1ccccc1/N=C(/S)C#N |  |  |  |  | inactive | inactive | inactive | inactive |
| 32 µg/mL (≈ 111 µM) | 32 µg/mL (≈ 111 µM) | 32 µg/mL (≈ 111 µM) | 32 µg/mL (≈ 111 µM) | COc1ccc(/N=c2\ssnc2Cl)cc1OC | 13 mm | 12 mm | 13 mm | 16 mm |  |  |  |  |
| 32 µg/mL (≈ 112 µM) | 32 µg/mL (≈ 112 µM) | 32 µg/mL (≈ 112 µM) | 32 µg/mL (≈ 112 µM) | COC(=O)c1ccccc1/N=c1\ssnc1Cl | 16 mm | 17 mm | 18 mm | 18 mm |  |  |  |  |
|  |  |  |  | COC(=O)c1cc(OC)c(OC)cc1/N=C(/S)C#N |  |  |  |  | inactive | inactive | inactive | inactive |
| 16 µg/mL (≈ 70 µM) | 16 µg/mL (≈ 70 µM) | 32 µg/mL (≈ 140 µM) | 16 µg/mL (≈ 70 µM) | Clc1nss/c1=N\c1ccccc1 | 19 mm | 27 mm | 29 mm | 26 mm |  |  |  |  |
| 16 µg/mL (≈ 61.8 µM) | 32 µg/mL (≈ 124 µM) | 32 µg/mL (≈ 124 µM) | 16 µg/mL (≈ 61.8 µM) | COc1ccccc1/N=c1\ssnc1Cl | 17 mm | 21 mm | 20 mm | 22 mm |  |  |  |  |
| 32 µg/mL (≈ 126 µM) | 32 µg/mL (≈ 126 µM) | 32 µg/mL (≈ 126 µM) | 32 µg/mL (≈ 126 µM) | N#Cc1ccccc1/N=c1\ssnc1Cl | 11 mm | 11 mm | 11 mm | 15 mm |  |  |  |  |
|  |  |  |  | COc1ccc(NC(=S)C#N)cc1OC |  |  |  |  | inactive | inactive | inactive | inactive |
|  |  |  |  | COc1cc(C#N)c(/N=C(/S)C#N)cc1OC |  |  |  |  | inactive | inactive | inactive | inactive |
| 32 µg/mL (≈ 124 µM) | 32 µg/mL (≈ 124 µM) | 32 µg/mL (≈ 124 µM) | 32 µg/mL (≈ 124 µM) | COc1ccc(/N=c2\ssnc2Cl)cc1 | 14 mm | 15 mm | 17 mm | 15 mm |  |  |  |  |
|  |  |  |  | N#CC(=S)Nc1ccccc1C#N |  |  |  |  | inactive | inactive | inactive | inactive |
